In patent US9175011B2, “Morpholino substituted urea or carbamate derivatives as MTOR inhibitors” (CELLZOME LIMITED, priority 2011, dated 2015):

How the values were obtained:
[1] = molecular target: T1, PI3K alpha (PI3Kα) (Homo sapiens, UniProt P42336); assay: kinobeads assay, PI3K alpha; format: binding; conditions: Jurkat cell lysate, read-out: Inhibition values (IC50) PI3Ka
T1 construct: Jurkat cells were homogenized in a Potter S homogenizer in lysis buffer; endogenous in cells; host or cells: Jurkat, clone E6-1 (ATCC TIB-152) lysate
T1 sequence (P42336 whole entry): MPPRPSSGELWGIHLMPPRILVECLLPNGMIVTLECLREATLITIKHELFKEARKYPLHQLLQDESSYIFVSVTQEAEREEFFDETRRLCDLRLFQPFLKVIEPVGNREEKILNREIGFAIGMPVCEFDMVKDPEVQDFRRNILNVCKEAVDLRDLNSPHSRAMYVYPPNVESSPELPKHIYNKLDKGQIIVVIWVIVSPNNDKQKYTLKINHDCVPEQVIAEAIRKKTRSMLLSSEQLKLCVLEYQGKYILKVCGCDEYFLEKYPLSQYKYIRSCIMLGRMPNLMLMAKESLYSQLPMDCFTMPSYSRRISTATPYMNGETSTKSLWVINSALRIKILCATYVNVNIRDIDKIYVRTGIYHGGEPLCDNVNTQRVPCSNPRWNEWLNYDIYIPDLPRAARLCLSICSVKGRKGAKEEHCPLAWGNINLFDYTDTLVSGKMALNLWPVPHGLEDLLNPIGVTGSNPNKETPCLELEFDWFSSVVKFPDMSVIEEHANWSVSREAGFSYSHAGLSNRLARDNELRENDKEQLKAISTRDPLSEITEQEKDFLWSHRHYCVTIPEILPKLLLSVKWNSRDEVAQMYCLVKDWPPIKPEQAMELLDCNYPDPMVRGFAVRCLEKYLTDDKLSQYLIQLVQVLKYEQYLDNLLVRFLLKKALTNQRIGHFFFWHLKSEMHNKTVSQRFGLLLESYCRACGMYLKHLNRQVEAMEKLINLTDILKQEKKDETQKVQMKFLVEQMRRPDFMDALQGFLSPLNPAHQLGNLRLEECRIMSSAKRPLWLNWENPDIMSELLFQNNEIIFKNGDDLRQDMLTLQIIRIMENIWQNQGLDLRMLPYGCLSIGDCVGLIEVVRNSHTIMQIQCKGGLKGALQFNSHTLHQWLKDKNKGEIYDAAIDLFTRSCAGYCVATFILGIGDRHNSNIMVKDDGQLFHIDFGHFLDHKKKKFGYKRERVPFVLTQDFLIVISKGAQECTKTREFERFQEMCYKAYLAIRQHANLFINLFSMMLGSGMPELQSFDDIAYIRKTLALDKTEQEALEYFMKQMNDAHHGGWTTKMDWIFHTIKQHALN
T1 sequence (P27986 whole entry partner): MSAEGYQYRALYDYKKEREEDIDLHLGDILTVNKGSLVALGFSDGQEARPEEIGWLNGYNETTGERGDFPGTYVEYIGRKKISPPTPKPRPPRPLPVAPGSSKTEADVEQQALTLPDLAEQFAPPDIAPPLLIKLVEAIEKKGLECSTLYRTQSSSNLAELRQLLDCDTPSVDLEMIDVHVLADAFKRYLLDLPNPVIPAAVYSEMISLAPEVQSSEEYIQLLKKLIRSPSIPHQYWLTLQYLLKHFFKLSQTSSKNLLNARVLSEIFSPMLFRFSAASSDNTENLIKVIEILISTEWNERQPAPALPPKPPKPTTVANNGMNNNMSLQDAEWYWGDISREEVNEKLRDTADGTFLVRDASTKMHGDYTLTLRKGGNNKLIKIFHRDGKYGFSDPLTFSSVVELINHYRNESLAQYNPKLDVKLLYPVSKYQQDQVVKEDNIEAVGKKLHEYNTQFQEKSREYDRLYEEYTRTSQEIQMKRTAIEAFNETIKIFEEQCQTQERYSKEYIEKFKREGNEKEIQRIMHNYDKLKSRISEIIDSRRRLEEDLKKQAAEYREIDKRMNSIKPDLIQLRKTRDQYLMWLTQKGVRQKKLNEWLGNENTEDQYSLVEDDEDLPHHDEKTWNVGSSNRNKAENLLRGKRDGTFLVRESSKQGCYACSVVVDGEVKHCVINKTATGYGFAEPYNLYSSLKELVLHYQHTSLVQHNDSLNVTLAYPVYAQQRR
Outline: (§1)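 IC50 values derive from dose-response curves of each kinase's capture, measured by specific-antibody dot blot and infrared detection after SDS elution. Compound competed with phenylthiazole and phenylmorpholin-chromen ligand beads for endogenous kinase in Jurkat lysate (5 mg/ml protein) during a three-hour cold-room incubation.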

[2] = molecular target: T2, DNA-dependent protein kinase (DNA-PK) (Homo sapiens, UniProt P78527); assay: kinobeads assay, DNA-PK; format: binding; conditions: Jurkat cell lysate, read-out: Inhibition values (IC50) DNA-PK
T2 construct: Jurkat cells were homogenized in a Potter S homogenizer in lysis buffer; endogenous in cells; host or cells: Jurkat, clone E6-1 (ATCC TIB-152) lysate
Outline: as §1

[3] = molecular target: T3, mTOR (Homo sapiens, UniProt P42345); assay: mTOR kinobeads assay (Jurkat cell lysate, dot blot detection); format: binding; conditions: read-out: Inhibition values (IC50) mTor
T3 construct: Jurkat cells were homogenized in a Potter S homogenizer in lysis buffer; endogenous in cells; host or cells: Jurkat, clone E6-1 (ATCC TIB-152) lysate
Outline: as §1

[4] = molecular target: T4, PI3K delta (PI3Kd) (Homo sapiens, UniProt O00329); assay: kinobeads assay, PI3K delta; format: binding; conditions: Jurkat cell lysate, read-out: Inhibition values (IC50) PI3Kd
T4 construct: Jurkat cells were homogenized in a Potter S homogenizer in lysis buffer; endogenous in cells; host or cells: Jurkat, clone E6-1 (ATCC TIB-152) lysate
T4 sequence (O00329 whole entry): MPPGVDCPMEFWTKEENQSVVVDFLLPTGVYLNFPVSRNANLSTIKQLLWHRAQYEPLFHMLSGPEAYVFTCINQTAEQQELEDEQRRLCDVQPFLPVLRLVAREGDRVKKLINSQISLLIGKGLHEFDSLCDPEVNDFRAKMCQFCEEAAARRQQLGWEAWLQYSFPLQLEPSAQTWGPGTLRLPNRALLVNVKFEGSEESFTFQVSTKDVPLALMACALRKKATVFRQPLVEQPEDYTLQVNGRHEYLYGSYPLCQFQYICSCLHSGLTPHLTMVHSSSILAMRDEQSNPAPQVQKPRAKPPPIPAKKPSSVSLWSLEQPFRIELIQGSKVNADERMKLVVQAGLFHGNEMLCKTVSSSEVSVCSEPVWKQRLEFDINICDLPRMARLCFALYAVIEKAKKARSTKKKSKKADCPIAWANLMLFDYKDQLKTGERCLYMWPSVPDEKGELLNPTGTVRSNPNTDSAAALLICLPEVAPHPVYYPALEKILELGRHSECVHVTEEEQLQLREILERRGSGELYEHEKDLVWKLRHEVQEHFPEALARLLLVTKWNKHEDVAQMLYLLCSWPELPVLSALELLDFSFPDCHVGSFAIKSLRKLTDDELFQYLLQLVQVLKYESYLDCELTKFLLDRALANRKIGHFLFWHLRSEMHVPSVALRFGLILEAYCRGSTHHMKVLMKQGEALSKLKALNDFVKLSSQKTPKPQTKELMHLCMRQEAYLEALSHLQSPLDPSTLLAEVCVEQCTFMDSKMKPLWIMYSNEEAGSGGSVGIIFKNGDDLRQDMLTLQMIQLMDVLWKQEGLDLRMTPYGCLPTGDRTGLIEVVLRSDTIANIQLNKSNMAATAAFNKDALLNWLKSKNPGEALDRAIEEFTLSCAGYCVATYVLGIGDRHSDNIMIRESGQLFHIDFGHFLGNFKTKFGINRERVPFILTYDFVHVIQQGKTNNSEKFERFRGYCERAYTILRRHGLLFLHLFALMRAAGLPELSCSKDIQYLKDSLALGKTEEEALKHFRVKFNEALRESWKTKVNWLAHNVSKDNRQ
T4 sequence (P27986 whole entry partner): as the sequence (P27986 whole entry partner) above
Outline: as §1

[5] = system: S6RP serine-240/244 phosphorylation; assay: In vitro phospho-S6 cellular assay (HEK293T/17); format: cell-based; conditions: Homo sapiens; HEK293T/17 cells, 2 hours, pS6RP Ser240/244; read-out: Inhibition values (IC50) pS6
Outline: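 HEK293T/17 cells in DMEM with 2% FCS were exposed to 8 compound concentrations (0.1% DMSO) for 2 h at 37 °C, then lysed. pS6RP Ser240/244 or pAkt Ser473 in the lysates was quantified by MSD sandwich electrochemiluminescence. IC50 was obtained by sigmoidal variable-slope nonlinear regression.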

[6] = system: Akt serine-473 phosphorylation; assay: In vitro phospho-Akt cellular assay (HEK293T/17); format: cell-based; conditions: Homo sapiens; HEK293T/17 cells, 2 hours, pAkt Ser 473; read-out: Inhibition values (IC50) pAkt
From the text: Activation of mTOR signaling results in phosphorylation of several downstream targets. In cells, mTOR exists in two different protein complexes. The mTOR Complex-1 (mTORC1) phosphorylates and activates S6 Kinase 1 (S6K1) and S6 Kinase 2 (S6K2) (also known as p70S6K) which then phosphorylate S6 Ribosomal Protein (S6RP) (also known as RPS6)3. S6RP is phosphorylated on serine 235, senile 236, serine 240 and serine 244 by both pS6K1 and pS6K2. The mTOR Complex-2 (mTORC2) phosphorylates AKT on serine 473 which activates the AKT signaling pathway.
The assay measures a test compound's inhibition of S6RP serine-240/244 phosphorylation and inhibition of Akt serine-473 phosphorylation in human embryonic kidney derived HEK293T/17 cells (ATCC CRL-11268).
The HEK293T/17 cell line is maintained in DMEM media (Invitrogen catalogue number 41965-039) supplemented with 10% FCS at 37° C. in a 5% CO2 humidified incubator. Cells are seeded in 96-well plates at 40,000 cells/well (pS6RP S240/244 assay) or 80,000 cells/well (pAkt 5473 assay) in 90 μl growth media (DMEM, 2% FCS). Plates are incubated for 1 hour in a humidified incubator to allow the cells to adhere. Cells are treated with 8 concentrations of test compounds or DMSO alone for controls (final DMSO concentration 0.1%) and incubated at 37° C. for 2 hours. Then 20 μl of 5× concentrated lysis buffer (750 mM NaCl, 100 mM Tris pH7.4, 5 mM ADTA, 5 mM EGTA, 5% Triton X-100) is added, plates are sealed and incubated for 15 minutes at 4° C. with gentle shaking After cell lysis, 25 μl cell lysate is transferred to a MesoScale plate coated with an antibody to pS6RP Ser240/244 (MesoScale Discovery K150DGD-3) or an antibody to pAkt Ser 473 (MesoScale Discovery K151DGD-3). Plates have been blocked before by incubation with 150 μl MesoScale Discovery Blocking Solution-A for 1 hour at room temperature followed by washing with 150 μl 1×Tris wash buffer per well. After the transfer of the cell lysate to the MSD plate, the pS6RP (or pAkt) protein is captured on the coated antibody by incubation at room temperature for 1 hour with gentle shaking. After the capture step the plate is washed three times with 150 μl of 1× Tris wash buffer per well. Then 25 μl detection antibody conjugated with a Sulfo-Tag is added and incubated for 1 hour at room temperature with gentle shaking. Subsequently the antibody solution is removed and the plate is washed 3 times with 150 μl 1×Tris wash buffer per well and 150 μl Read buffer is added. The plates are analysed on a MSD 2400 Plate Reader (MesoScale Discovery). Data analysis is performed using nonlinear regression for a sigmoidal dose-response with a variable slope.

[7] = molecular target: T5, PI3K beta (PI3Kb) (Homo sapiens, UniProt P42338); assay: kinobeads assay, PI3K beta; format: binding; conditions: Jurkat cell lysate, read-out: Inhibition values (IC50) PI3Kb
T5 construct: Jurkat cells were homogenized in a Potter S homogenizer in lysis buffer; endogenous in cells; host or cells: Jurkat, clone E6-1 (ATCC TIB-152) lysate
T5 sequence (P42338 whole entry): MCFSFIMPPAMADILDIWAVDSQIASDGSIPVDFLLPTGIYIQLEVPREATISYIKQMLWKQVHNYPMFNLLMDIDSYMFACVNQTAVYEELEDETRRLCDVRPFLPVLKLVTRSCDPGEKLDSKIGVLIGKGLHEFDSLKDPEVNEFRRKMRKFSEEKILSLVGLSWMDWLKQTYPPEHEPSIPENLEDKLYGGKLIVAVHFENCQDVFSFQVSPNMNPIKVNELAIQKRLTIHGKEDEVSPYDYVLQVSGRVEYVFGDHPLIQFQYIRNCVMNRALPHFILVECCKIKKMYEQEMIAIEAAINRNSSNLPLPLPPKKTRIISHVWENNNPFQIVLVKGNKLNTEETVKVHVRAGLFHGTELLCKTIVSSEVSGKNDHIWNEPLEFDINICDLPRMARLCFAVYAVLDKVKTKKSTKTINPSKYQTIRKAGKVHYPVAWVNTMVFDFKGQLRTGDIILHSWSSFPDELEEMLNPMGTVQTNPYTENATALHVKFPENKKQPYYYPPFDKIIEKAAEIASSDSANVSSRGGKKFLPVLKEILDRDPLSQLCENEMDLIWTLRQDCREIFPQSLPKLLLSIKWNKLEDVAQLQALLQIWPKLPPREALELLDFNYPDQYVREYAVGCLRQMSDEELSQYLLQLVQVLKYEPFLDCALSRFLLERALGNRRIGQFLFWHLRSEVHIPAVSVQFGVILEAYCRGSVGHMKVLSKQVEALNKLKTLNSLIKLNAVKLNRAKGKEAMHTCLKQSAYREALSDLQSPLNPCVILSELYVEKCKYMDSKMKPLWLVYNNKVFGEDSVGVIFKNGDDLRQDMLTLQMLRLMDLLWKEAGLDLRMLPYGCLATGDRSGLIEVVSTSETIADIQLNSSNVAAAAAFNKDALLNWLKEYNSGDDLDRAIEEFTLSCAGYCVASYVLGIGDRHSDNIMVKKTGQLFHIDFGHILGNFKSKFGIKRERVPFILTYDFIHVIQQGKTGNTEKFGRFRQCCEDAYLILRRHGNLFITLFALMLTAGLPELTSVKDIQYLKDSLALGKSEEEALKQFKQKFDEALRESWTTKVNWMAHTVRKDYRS
T5 sequence (P27986 whole entry partner): as the sequence (P27986 whole entry partner) above
Outline: as §1

[8] = molecular target: T6, PI3K gamma (PI3Kg) (Homo sapiens, UniProt P48736); assay: kinobeads assay, PI3K gamma; format: binding; conditions: Jurkat cell lysate, read-out: Inhibition values (IC50) PI3Kg
T6 construct: Jurkat cells were homogenized in a Potter S homogenizer in lysis buffer; endogenous in cells; host or cells: Jurkat, clone E6-1 (ATCC TIB-152) lysate
T6 sequence (P48736 whole entry): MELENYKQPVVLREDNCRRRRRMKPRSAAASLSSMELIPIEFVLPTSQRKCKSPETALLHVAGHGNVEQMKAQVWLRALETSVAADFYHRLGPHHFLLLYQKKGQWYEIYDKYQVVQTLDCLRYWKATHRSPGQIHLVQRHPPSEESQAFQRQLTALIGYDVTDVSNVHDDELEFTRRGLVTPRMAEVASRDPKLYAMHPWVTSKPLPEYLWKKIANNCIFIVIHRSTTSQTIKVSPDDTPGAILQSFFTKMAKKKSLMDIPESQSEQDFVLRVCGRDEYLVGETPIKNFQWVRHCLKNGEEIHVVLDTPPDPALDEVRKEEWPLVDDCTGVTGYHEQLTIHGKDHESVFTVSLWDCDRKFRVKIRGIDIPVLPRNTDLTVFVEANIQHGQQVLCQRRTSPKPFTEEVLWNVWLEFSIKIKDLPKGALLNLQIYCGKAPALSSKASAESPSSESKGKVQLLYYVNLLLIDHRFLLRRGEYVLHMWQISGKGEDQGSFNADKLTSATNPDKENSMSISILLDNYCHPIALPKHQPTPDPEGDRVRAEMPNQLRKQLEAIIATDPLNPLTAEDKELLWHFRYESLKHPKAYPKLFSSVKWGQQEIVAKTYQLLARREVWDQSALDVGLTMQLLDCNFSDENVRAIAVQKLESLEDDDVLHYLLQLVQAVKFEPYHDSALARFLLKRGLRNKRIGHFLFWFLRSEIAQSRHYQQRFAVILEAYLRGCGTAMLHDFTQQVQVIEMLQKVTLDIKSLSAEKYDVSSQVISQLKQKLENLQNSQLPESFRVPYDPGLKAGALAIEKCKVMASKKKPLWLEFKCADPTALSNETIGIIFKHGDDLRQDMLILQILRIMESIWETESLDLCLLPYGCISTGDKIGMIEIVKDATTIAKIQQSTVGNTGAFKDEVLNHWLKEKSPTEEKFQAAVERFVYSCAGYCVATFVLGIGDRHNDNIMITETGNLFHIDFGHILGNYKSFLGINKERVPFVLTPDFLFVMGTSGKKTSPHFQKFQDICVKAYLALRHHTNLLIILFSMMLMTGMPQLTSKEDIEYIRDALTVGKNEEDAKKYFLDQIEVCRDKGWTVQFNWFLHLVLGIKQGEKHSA
Outline: as §1

Work on `C[C@H]1COCCN1c1nc(-c2ccc(NC(=O)NC3CC3)cc2)nc(-c2ccccc2S(C)(=O)=O)n1` [Example 1, (S)-1-cyclopropyl-3-(4-(4-(3-methylmorpholino)-6-(2-(methylsulfonyl)phenyl)-1,3,5-triazin-2-yl)phenyl)urea] yielded an IC50 [1] greater than 10 µM, an IC50 [2] greater than 10 µM and an IC50 [3] of less than 0.1 µM. For the same molecule, the IC50 [4] was greater than 10 µM, the IC50 [5] was less than 0.1 µM and the IC50 [6] was less than 0.1 µM. The IC50 [7] was greater than 10 µM and the IC50 [8] was greater than 10 µM.
In the case of `C[C@H]1COCCN1c1nc(-c2ccc(NC(=O)NCCO)cc2)nc(-c2ccccc2S(C)(=O)=O)n1` [Example 4, (S)-1-(2-hydroxyethyl)-3-(4-(4-(3-methylmorpholino)-6-(2-(methylsulfonyl)phenyl)-1,3,5-triazin-2-yl)phenyl)urea], the IC50 [1] is reported as greater than 10 µM, the IC50 [2] is reported as greater than 10 µM and the IC50 [3] is reported as less than 0.1 µM. For the same molecule, the IC50 [4] was greater than 10 µM, the IC50 [5] was less than 0.1 µM and the IC50 [6] was less than 0.1 µM. It also gave an IC50 [7] greater than 10 µM and an IC50 [8] greater than 10 µM.
`C[C@H]1COCCN1c1nc(-c2ccc(NC(=O)NC3CC3)cc2)nc(-c2cc(F)ccc2S(C)(=O)=O)n1` [Example 5, (S)-1-cyclopropyl-3-(4-(4-(5-fluoro-2-(methylsulfonyl)phenyl)-6-(3-methylmorpholino)-1,3,5-triazin-2-yl)phenyl)urea] showed an IC50 [1] greater than 10 µM, an IC50 [2] greater than 10 µM and an IC50 [3] of 0.1 to 1 µM. For the same molecule, the IC50 [4] was greater than 10 µM, the IC50 [5] was less than 0.1 µM and the IC50 [6] was less than 0.1 µM. For the same molecule, the IC50 [7] was greater than 10 µM and the IC50 [8] was greater than 10 µM.
Work on `C[C@H]1COCCN1c1nc(-c2ccc(NC(=O)NCCO)cc2)nc(-c2cc(F)ccc2S(C)(=O)=O)n1` [Example 6, (S)-1-(4-(4-(5-fluoro-2-(methylsulfonyl)phenyl)-6-(3-methylmorpholino)-1,3,5-triazin-2-yl)phenyl)-3-(2-hydroxyethyl)urea] yielded an IC50 [1] greater than 10 µM, an IC50 [2] greater than 10 µM and an IC50 [3] of less than 0.1 µM. For the same molecule, the IC50 [4] was greater than 10 µM, the IC50 [5] was 0.1 to 1 µM and the IC50 [6] was less than 0.1 µM. For the same molecule, the IC50 [7] was greater than 10 µM and the IC50 [8] was greater than 10 µM.
Molecule `C[C@H]1COCCN1c1nc(-c2ccc(NC(=O)NCCF)cc2)nc(-c2ccccc2S(C)(=O)=O)n1` [Example 7, (S)-1-(2-fluoroethyl)-3-(4-(4-(3-methylmorpholino)-6-(2-(methylsulfonyl)phenyl)-1,3,5-triazin-2-yl)phenyl)urea] has an IC50 [1] greater than 10 µM, an IC50 [2] greater than 10 µM and an IC50 [3] of less than 0.1 µM. For the same molecule, the IC50 [4] was greater than 10 µM, the IC50 [5] was less than 0.1 µM and the IC50 [6] was less than 0.1 µM. For the same molecule, the IC50 [7] was greater than 10 µM and the IC50 [8] was greater than 10 µM.
With `C[C@H]1COCCN1c1nc(-c2ccc(NC(=O)NCC(F)F)cc2)nc(-c2ccccc2S(C)(=O)=O)n1` [Example 8, (S)-1-(2,2-difluoroethyl)-3-(4-(4-(3-methylmorpholin)-6-(2-(methylsulfonyl)phenyl)-1,3,5-triazin-2-yl)phenyl)urea] the IC50 [1] was greater than 10 µM, the IC50 [2] was greater than 10 µM and the IC50 [3] was less than 0.1 µM. For the same molecule, the IC50 [4] was greater than 10 µM, the IC50 [5] was less than 0.1 µM and the IC50 [6] was less than 0.1 µM. It also gave an IC50 [7] greater than 10 µM and an IC50 [8] greater than 10 µM.
With `CCNC(=O)Nc1ccc(-c2nc(-c3ccccc3S(C)(=O)=O)nc(N3CCOC[C@@H]3C)n2)cc1` [Example 10, (S)-1-ethyl-3-(4-(4-(3-methylmorpholino)-6-(2-(methylsulfonyl)phenyl)-1,3,5-triazin-2-yl)phenyl)urea] the IC50 [1] was greater than 10 µM, the IC50 [2] was greater than 10 µM and the IC50 [3] was less than 0.1 µM. For the same molecule, the IC50 [4] was greater than 10 µM, the IC50 [5] was less than 0.1 µM and the IC50 [6] was less than 0.1 µM. For the same molecule, the IC50 [7] was greater than 10 µM and the IC50 [8] was greater than 10 µM.
For `CNC(=O)Nc1ccc(-c2nc(-c3ccccc3S(C)(=O)=O)nc(N3CCOC[C@@H]3C)n2)cc1` [Example 14, (S)-1-methyl-3-(4-(4-(3-methylmorpholino)-6-(2-(methylsulfonyl)phenyl)-1,3,5-triazin-2-yl)phenyl)urea], the IC50 [1] was greater than 10 µM, the IC50 [2] was greater than 10 µM and the IC50 [3] was 0.1 to 1 µM. The IC50 [4] was greater than 10 µM, the IC50 [5] was less than 0.1 µM and the IC50 [6] was less than 0.1 µM. For the same molecule, the IC50 [7] was greater than 10 µM and the IC50 [8] was greater than 10 µM.
`C[C@H]1COCCN1c1nc(-c2ccc(NC(=O)NC3CC3)cc2)nc(-c2cccnc2S(C)(=O)=O)n1` [Example 24, (S)-1-cyclopropyl-3-(4-(4-(3-methylmorpholino)-6-(2-(methylsulfonyl)pyridin-3-yl)-1,3,5-triazin-2-yl)phenyl)urea] was tested, and the IC50 [1] was greater than 10 µM, the IC50 [2] was greater than 10 µM and the IC50 [3] was less than 0.1 µM. For the same molecule, the IC50 [4] was 1 to 10 µM, the IC50 [5] was less than 0.1 µM and the IC50 [6] was less than 0.1 µM. It also gave an IC50 [7] of 1 to 10 µM and an IC50 [8] greater than 10 µM.
